Assay results as given in US20100129434A1, “COMPOSITIONS AND METHODS FOR THE TREATMENT OF MUCORMYCOSIS AND OTHER FUNGAL DISEASES” (priority 2006, published 2010).
In brackets after ≈: the same amount, converted by molar mass. Read-outs that look alike come from different tables or passages of the source.

Columns and labels:
R. oryzae [1] = assay: Tissue fungal burden of DKA mice infected with R. oryzae; assay type: in vivo, BALB/c male mice
Description: Briefly, for in vivo infection, BALB/c male mice (>20 g) were rendered diabetic with a single i.p. injection of 210 mg/kg streptozotocin in 0.2 ml citrate buffer 10 days prior to fungal challenge. […] Mice were infected through the tail vein with the appropriate inocula of R. oryzae. To confirm the inocula, dilutions were streaked on PDA plates and colonies were counted following a 24 h incubation period at room temperature. The primary efficacy endpoint was time to death. As a secondary endpoint, brain fungal burden (the primary target organ) was determined by homogenization by rolling a pipette on organs placed in Whirl-Pak bags (Nasco, Fort Atkinson, Wis.) containing 2 ml saline. The homogenate was serially diluted in 0.85% saline and then quantitatively cultured on PDA. Values were expressed as log 10 cfu g^−1 tissue. All procedures involving mice were approved by the institutional animal use and care committee, following the National Institutes of Health guidelines for animal housing and care.
(§1) For in vivo infection, BALB/c male mice (>20 g) were rendered diabetic with a single i.p. injection of 210 mg/kg streptozotocin in 0.2 ml citrate buffer 10 days prior to fungal challenge. […] For neutropenic mouse model, mice were injected with a single i.p. dose of 200 mg/kg cyclolphosphamide (Bristol Myer Squibb) 2 days prior to infection with R. oryzae. […] Mice were infected through the tail vein with the appropriate inocula of R. oryzae. To confirm the inocula, dilutions were streaked on PDA plates containing 0.1% triton and colonies were counted following a 24 h incubation period at 37° C. The primary efficacy endpoint was time to death. As a secondary endpoint, brain fungal burden (the primary target organ) was determined by homogenization by rolling a pipette on organs placed in Whirl-Pak™ bags (Nasco®, Fort Atkinson, Wis.) containing 1 ml saline. The homogenate was serially diluted in 0.85% saline and then quantitatively cultured on PDA. Values were expressed as log10 cfu g−1 tissue. Finally, for histopathological analysis, infected organs were collected from mice and fixed in 10% zinc formalin. Fixed tissues were embedded in paraffin, and […] sections were stained with haematoxylin and eosin for light microscopy examination. All procedures involving mice were approved by the institutional animal use and care committee, following the National Institutes of Health guidelines for animal housing and care.

R. oryzae [2] = assay: Survival of neutropenic mice infected with R. oryzae; assay type: in vivo
Description: as §1
Two days later, mice were infected via the tail-vein with 2.7×10^3 spores of R. oryzae 99-892.

Non-oryzae Rhizopus = assay: Deferasirox susceptibility testing (MIC/MFC), non-oryzae Rhizopus isolates; assay type: cell-based, Rhizopus spp.
Description: (§2) Minimum inhibitory concentration (MIC) and minimum fungicidal concentration (MFC) were determined for deferasirox by the method of Espinel-Ingroff using R. oryzae spores starved for iron (Espinel-Ingroff, (2001), supra). Cidality was defined as a <4-fold difference between MIC and MFC.
(§3) We next determined the deferasirox susceptibilities of multiple clinical isolates of Mucorales (Table 3). The MIC9OS of deferasirox against Mucor, non-oryzae Rhizopus spp., and R. oryzae were 3.12 to 6.25 μg/ml. MFCs were similar to MICs, and deferasirox was cidal for 28/29 (97%) of isolates. Of note, slight growth was seen within the first twelve hours even at extremely high concentrations of deferasirox. […] Furthermore, the MICs and MFCs of deferasirox against these isolates were well below clinically achievable peak (˜38 μg/ml) and trough serum levels (˜17 μg/ml) of the drug at steady state when administered at the FDA-approved starting dose (20 mg/kg/d).

Mucor spp. = assay: Deferasirox susceptibility testing (MIC/MFC), Mucor clinical isolates; assay type: cell-based
Description: as §2, §3

[3] = 4.2×10^4 spores R. oryzae 99-892, 10 mg/kg bid, 3 days, vs placebo or deferasirox plus saturating ferric chloride
[4] = 24 h, R. microsporus ATCC 62417
[5] = 48 h, R. microsporus ATCC 62417
[6] = Non-oryzae Rhizopus MIC90/MFC90, 24 h
[7] = Non-oryzae Rhizopus MIC90/MFC90, 48 h
[8] = Rhizopus, 24 h, Rhizopus sp. 99-1150
[9] = Rhizopus, 24 h, Rhizopus sp. 99-1700
[10] = Rhizopus, 48 h, Rhizopus sp. 99-1150
[11] = Rhizopus, 48 h, Rhizopus sp. 99-1700
[12] = Rhizopus, ATCC20577, 24 h, Rhizopus sp. ATCC 20577, 24 h
[13] = Rhizopus, ATCC20577, 48 h, Rhizopus sp. ATCC 20577, 48 h

In the case of O=C(O)c1ccc(-n2nc(-c3ccccc3O)nc2-c2ccccc2O)cc1 [Deferasirox, 4-[3,5-Bis(2-hydroxyphenyl)-1H-1,2,4-triazol-1-yl]-benzoic acid], the “decrease in brain fungal burden” value (R. oryzae [1]; [3]) is reported as “greater than 10 fold”, the “decrease in kidney fungal burden” value (R. oryzae [1]; [3]) is reported as “greater than 10 fold” and the “brain CFUs compared to placebo” value (R. oryzae [1]; R. oryzae 99-880, monotherapy, organs harvested day 3) is reported as “neither drug alone was able to reduce brain CFUs”. The “time to death compared to placebo” value (R. oryzae [2]; 2.7×10^3 spores R. oryzae 99-892, 10 mg/kg twice qod, five doses from 24 h post infection) was “significantly improved time to death”, the “time to death versus placebo” value (R. oryzae [2]; R. oryzae 99-892, dosed twice daily) was “did not significantly improve time to death” and the MFC (Non-oryzae Rhizopus; [4]) was 0.39 mg/L (≈ 1.04 µM). The MIC (Non-oryzae Rhizopus; [4]) was 0.39 mg/L (≈ 1.04 µM), the MFC (Non-oryzae Rhizopus; [5]) was 0.39 mg/L (≈ 1.04 µM) and the MIC (Non-oryzae Rhizopus; [5]) was 0.39 mg/L (≈ 1.04 µM). The “Fungicidal?” value (Non-oryzae Rhizopus; [6]) was “Y (Cidal = MFC/MIC ≦ 4)”, the MFC90 (Non-oryzae Rhizopus; [6]) was 6.25 mg/L (≈ 16.7 µM) and the MIC90 (Non-oryzae Rhizopus; [6]) was 6.25 mg/L (≈ 16.7 µM). For the same molecule, the “Fungicidal?” value (Non-oryzae Rhizopus; [7]) was “Y (Cidal = MFC/MIC ≦ 4)”, the MFC90 (Non-oryzae Rhizopus; [7]) was 6.25 mg/L (≈ 16.7 µM) and the MIC90 (Non-oryzae Rhizopus; [7]) was 3.12 mg/L (≈ 8.36 µM). The “Fungicidal?” value (Non-oryzae Rhizopus; R. microsporus ATCC 62417, 24 h) was “Y (Cidal = MFC/MIC ≦ 4)”, the “Fungicidal?” value (Non-oryzae Rhizopus; R. microsporus ATCC 62417, 48 h) was “Y (Cidal = MFC/MIC ≦ 4)” and the “Fungicidal?” value (Non-oryzae Rhizopus; Rhizopus sp. 99-1150, 24 h) was “Y (Cidal = MFC/MIC ≦ 4)”. The “Fungicidal?” value (Non-oryzae Rhizopus; Rhizopus sp. 99-1150, 48 h) was “Y (Cidal = MFC/MIC ≦ 4)”, the “Fungicidal?” value (Non-oryzae Rhizopus; Rhizopus sp. 99-1700, 24 h) was “Y (Cidal = MFC/MIC ≦ 4)” and the “Fungicidal?” value (Non-oryzae Rhizopus; Rhizopus sp. 99-1700, 48 h) was “Y (Cidal = MFC/MIC ≦ 4)”. For the same molecule, the “Fungicidal?” value (Non-oryzae Rhizopus; Rhizopus sp. ATCC 20577, 24 h) was “Y (Cidal = MFC/MIC ≦ 4)”, the “Fungicidal?” value (Non-oryzae Rhizopus; Rhizopus sp. ATCC 20577, 48 h) was “Y (Cidal = MFC/MIC ≦ 4)” and the MFC (Non-oryzae Rhizopus; [8]) was 6.25 mg/L (≈ 16.7 µM). The MIC (Non-oryzae Rhizopus; [8]) was 6.25 mg/L (≈ 16.7 µM), the MFC (Non-oryzae Rhizopus; [9]) was 6.25 mg/L (≈ 16.7 µM) and the MIC (Non-oryzae Rhizopus; [9]) was 6.25 mg/L (≈ 16.7 µM). It also gave an MFC (Non-oryzae Rhizopus; [10]) of 3.12 mg/L (≈ 8.36 µM), an MIC (Non-oryzae Rhizopus; [10]) of 3.12 mg/L (≈ 8.36 µM) and an MFC (Non-oryzae Rhizopus; [11]) of 1.56 mg/L (≈ 4.18 µM). For the same molecule, the MIC (Non-oryzae Rhizopus; [11]) was 1.56 mg/L (≈ 4.18 µM), the MFC (Non-oryzae Rhizopus; [12]) was 6.25 mg/L (≈ 16.7 µM) and the MIC (Non-oryzae Rhizopus; [12]) was 3.12 mg/L (≈ 8.36 µM). The MFC (Non-oryzae Rhizopus; [13]) was 6.25 mg/L (≈ 16.7 µM), the MIC (Non-oryzae Rhizopus; [13]) was 3.12 mg/L (≈ 8.36 µM) and the “Fungicidal?” value (Mucor spp.; Mucor 97-1083, 24 h) was “Y (Cidal = MFC/MIC ≦ 4)”. The “Fungicidal?” value (Mucor spp.; Mucor 97-1083, 48 h) was “Y (Cidal = MFC/MIC ≦ 4)”, the “Fungicidal?” value (Mucor spp.; Mucor ramosissumus 97-1192, 24 h) was “Y (Cidal = MFC/MIC ≦ 4)” and the MFC (Mucor spp.; Mucor ramosissumus 97-1192, 24 h, read-out: MFC) was 0.78 mg/L (≈ 2.09 µM). The MIC (Mucor spp.; Mucor ramosissumus 97-1192, 24 h, read-out: MIC) was 0.78 mg/L (≈ 2.09 µM), the “Fungicidal?” value (Mucor spp.; Mucor ramosissumus 97-1192, 48 h) was “Y (Cidal = MFC/MIC ≦ 4)” and the MFC (Mucor spp.; Mucor ramosissumus 97-1192, 48 h, read-out: MFC) was 0.78 mg/L (≈ 2.09 µM). For the same molecule, the MIC (Mucor spp.; Mucor ramosissumus 97-1192, 48 h, read-out: MIC) was 0.78 mg/L (≈ 2.09 µM), the “Fungicidal?” value (Mucor spp.; Mucor sp. 99-932, 24 h) was “Y (Cidal = MFC/MIC ≦ 4)” and the “Fungicidal?” value (Mucor spp.; Mucor sp. 99-932, 48 h) was “Y (Cidal = MFC/MIC ≦ 4)”. For the same molecule, the “Fungicidal?” value (Mucor spp.; Mucor spp. MIC90/MFC90, 24 h) was “Y (Cidal = MFC/MIC ≦ 4)”, the MFC90 (Mucor spp.; Mucor spp. MIC90/MFC90, 24 h) was 3.12 mg/L (≈ 8.36 µM) and the “Fungicidal?” value (Mucor spp.; Mucor spp. MIC90/MFC90, 48 h) was “Y (Cidal = MFC/MIC ≦ 4)”. It also gave an MFC90 (Mucor spp.; Mucor spp. MIC90/MFC90, 48 h) of 3.12 mg/L (≈ 8.36 µM), an MIC90 (Mucor spp.; Mucor, 24 h) of 3.12 mg/L (≈ 8.36 µM) and an MFC (Mucor spp.; Mucor, 24 h, Mucor 97-1083) of 3.12 mg/L (≈ 8.36 µM). For the same molecule, the MIC (Mucor spp.; Mucor, 24 h, Mucor 97-1083) was 3.12 mg/L (≈ 8.36 µM), the MFC (Mucor spp.; Mucor, 24 h, Mucor sp. 99-932) was 3.12 mg/L (≈ 8.36 µM) and the MIC (Mucor spp.; Mucor, 24 h, Mucor sp. 99-932) was 3.12 mg/L (≈ 8.36 µM). For the same molecule, the MIC90 (Mucor spp.; Mucor, 48 h) was 3.12 mg/L (≈ 8.36 µM), the MFC (Mucor spp.; Mucor, 48 h, Mucor 97-1083) was 3.12 mg/L (≈ 8.36 µM) and the MIC (Mucor spp.; Mucor, 48 h, Mucor 97-1083) was 3.12 mg/L (≈ 8.36 µM). For the same molecule, the MFC (Mucor spp.; Mucor, 48 h, Mucor sp. 99-932) was 3.12 mg/L (≈ 8.36 µM) and the MIC (Mucor spp.; Mucor, 48 h, Mucor sp. 99-932) was 3.12 mg/L (≈ 8.36 µM).
